For assay [1], the target named is Olfr339 (Mus musculus, UniProt Q8VGK8). The assay can be described thus: Geonol concentration-dependent activation of Olfr339: OR-dependent cAMP accumulation in a cell-based assay (functional dose-response). The following applies: agonist, mouse Olfr339 (SEQ ID NO: 44), N-terminal FLAG/Rho/Lucy tags, HEK 293T cells, Gαolf, FIG. 5. The text has this:
(§1) The detection method pertains to OR-dependent accumulation of cAMP in said cells, as a result of OR activation by geonol.
(§2) In a further embodiment, to complete the deorphanization process, the candidate OR genes are further expressed in vitro for confirmation of activity against the compounds used to isolate the olfactory sensory neurons and other structurally-related compounds of interest. […]
(§3) Neurons that were activated by DMTS were further isolated for full transcriptome analysis to identify the responsive odorant receptor. […] Amplified cDNA was then used to generate an Illumina cDNA library for Next-Generation-Sequencing and the generation of 100 base pair single read sequences. […]
(In general: Changes in cAMP serve as a functional read-out for many G protein-coupled receptors.)

Assay [2] concerns the target Olfr1487 (Mus musculus, UniProt Q8VFQ6). Put plainly: Geonol concentration-dependent activation of Olfr1487: OR-dependent cAMP accumulation in a cell-based assay (functional dose-response). The settings on record: agonist, mouse Olfr1487 (SEQ ID NO: 42), N-terminal FLAG/Rho/Lucy tags, HEK 293T cells, Gαolf, FIG. 5.
Text: as §1, §2, §3

Assay [3] deals with Olfr96 (Mus musculus, UniProt Q0VBG2). Put plainly: Geonol concentration-dependent activation of Olfr96: OR-dependent cAMP accumulation in a cell-based assay (functional dose-response). The settings on record: agonist, mouse Olfr96 (SEQ ID NO: 28), N-terminal FLAG/Rho/Lucy tags, HEK 293T cells, Gαolf, FIG. 5.
Text: as §1, §2, §3

Assay [4] concerns the target OR11A1 (Homo sapiens, UniProt Q9GZK7). The assay can be described thus: Geonol concentration-dependent activation of OR11A1: OR-dependent cAMP accumulation in a cell-based assay (functional dose-response). Further details: expressed in transfected cells; host or cells: HEK293T. The following applies: agonist, human OR11A1 (SEQ ID NO: 12), HEK293T cells expressing Golf, FIG. 5.
Text: as §1, §2
(§4) In the second method, a panel of odorant receptors comprising the 400 putatively functional human receptor repertoire were transfected into a cultured human HEK293T cell line described in WO2014/210585 expressing Human olfactory G-protein alpha subunit (Golf—SEQ. ID No. 49) and coupled to a cyclicAMP reporter. Said panel of in vitro odorant receptors were exposed to MCSs and the level of cAMP signal was measured for each receptor. […]

For assay [5], the target named is Olfr1322 (Mus musculus, UniProt Q7TQW3). The assay can be described thus: Geonol concentration-dependent activation of Olfr1322: OR-dependent cAMP accumulation in a cell-based assay (functional dose-response). The following applies: agonist, mouse Olfr1322 (SEQ ID NO: 73), N-terminal FLAG/Rho/Lucy tags, HEK 293T cells, Gαolf, FIG. 5.
Text: as §1, §2, §3

Assay [6] addresses Olfr1364 (Mus musculus, UniProt Q5SZS9). Put plainly: 1-octen-3-ol concentration-dependent activation of Olfr1364: OR-dependent cAMP accumulation in a cell-based assay (functional dose-response). The settings on record: agonist, mouse Olfr1364 (SEQ ID NO: 69), N-terminal FLAG/Rho/Lucy tags, HEK 293T cells, Gαolf, FIG. 6.
Text: (§5) The detection method pertains to OR-dependent accumulation of cAMP in said cells, as a result of OR activation by 1-octen-3-ol.
as §2, §3

In assay [7] the target is Olfr120 (Mus musculus, UniProt Q7TRJ4). Put plainly: 1-octen-3-ol concentration-dependent activation of Olfr120: OR-dependent cAMP accumulation in a cell-based assay (functional dose-response). The following applies: agonist, mouse Olfr120 (SEQ ID NO: 67), N-terminal FLAG/Rho/Lucy tags, HEK 293T cells, Gαolf, FIG. 6.
Text: as §5, §2, §3

For assay [8], the target named is Olfr93 (Mus musculus, UniProt B9EI77). Put plainly: 1-octen-3-ol concentration-dependent activation of Olfr93: OR-dependent cAMP accumulation in a cell-based assay (functional dose-response). The settings on record: agonist, mouse Olfr93 (SEQ ID NO: 63), N-terminal FLAG/Rho/Lucy tags, HEK 293T cells, Gαolf, FIG. 6.
Text: as §5, §2, §3

For assay [9], the target named is Olfr398 (Mus musculus, UniProt Q8VFY0). The assay can be described thus: 1-octen-3-ol concentration-dependent activation of Olfr398: OR-dependent cAMP accumulation in a cell-based assay (functional dose-response). The settings on record: agonist, mouse Olfr398 (SEQ ID NO: 65), N-terminal FLAG/Rho/Lucy tags, HEK 293T cells, Gαolf, FIG. 6.
Assay [10] addresses T1, OR2W1 (Homo sapiens, UniProt Q9Y3N9, M81V).
T1 sequence (Q9Y3N9 1-320 M81V): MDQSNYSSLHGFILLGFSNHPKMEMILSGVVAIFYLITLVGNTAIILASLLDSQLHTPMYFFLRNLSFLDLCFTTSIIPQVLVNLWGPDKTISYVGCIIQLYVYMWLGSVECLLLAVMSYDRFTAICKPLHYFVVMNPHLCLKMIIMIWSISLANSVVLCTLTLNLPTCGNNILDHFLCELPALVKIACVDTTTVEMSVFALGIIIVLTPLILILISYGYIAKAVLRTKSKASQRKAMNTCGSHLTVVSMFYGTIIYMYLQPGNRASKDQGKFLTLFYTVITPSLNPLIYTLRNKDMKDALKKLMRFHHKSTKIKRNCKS
The assay can be described thus: Concentration-dependent activation of OR2W1: OR-dependent cAMP accumulation in a cell-based assay (functional dose-response). Further details: expressed in transfected cells; host or cells: HEK293T. The settings on record: agonist transpirol, human OR2W1 (SEQ ID NO: 2), HEK293T cells expressing Golf, FIG. 7.
Text: (§6) The detection method pertains to OR-dependent accumulation of cAMP in said cells, as a result of OR activation by transpirol.
(§7) The detection method pertains to OR-dependent accumulation of cAMP in said cells, as a result of OR activation by 3-methyl-2-hexenoic acid.
as §2, §4

Assay [11] deals with Olfr46 (Mus musculus, UniProt Q2VPD7). Put plainly: Transpirol concentration-dependent activation of Olfr46: OR-dependent cAMP accumulation in a cell-based assay (functional dose-response). The settings on record: agonist, mouse Olfr46 (SEQ ID NO: 75), N-terminal FLAG/Rho/Lucy tags, HEK 293T cells, Gαolf, FIG. 7.
Text: as §6, §2, §3

Assay [12] deals with Olfr263 (Mus musculus, UniProt Q7TQT8). The assay can be described thus: Concentration-dependent activation of Olfr263: OR-dependent cAMP accumulation in a cell-based assay (functional dose-response). The following applies: agonist transpirol, mouse Olfr263 (SEQ ID NO: 22), N-terminal FLAG/Rho/Lucy tags, HEK 293T cells, Gαolf, FIG. 7.
Text: as §6, §7, §2, §3

SMILES strings stand for the structures.

Chain of Olfr96 (Q0VBG2 1-313): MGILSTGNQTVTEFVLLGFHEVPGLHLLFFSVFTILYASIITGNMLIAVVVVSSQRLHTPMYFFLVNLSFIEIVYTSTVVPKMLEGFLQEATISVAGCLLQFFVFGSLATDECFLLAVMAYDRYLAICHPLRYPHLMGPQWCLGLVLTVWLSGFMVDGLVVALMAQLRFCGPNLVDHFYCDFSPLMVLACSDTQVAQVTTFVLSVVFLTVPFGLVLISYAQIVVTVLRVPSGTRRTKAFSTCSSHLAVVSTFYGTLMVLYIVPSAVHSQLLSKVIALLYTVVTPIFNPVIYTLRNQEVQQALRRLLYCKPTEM
Chain of Olfr263 (Q7TQT8 1-317): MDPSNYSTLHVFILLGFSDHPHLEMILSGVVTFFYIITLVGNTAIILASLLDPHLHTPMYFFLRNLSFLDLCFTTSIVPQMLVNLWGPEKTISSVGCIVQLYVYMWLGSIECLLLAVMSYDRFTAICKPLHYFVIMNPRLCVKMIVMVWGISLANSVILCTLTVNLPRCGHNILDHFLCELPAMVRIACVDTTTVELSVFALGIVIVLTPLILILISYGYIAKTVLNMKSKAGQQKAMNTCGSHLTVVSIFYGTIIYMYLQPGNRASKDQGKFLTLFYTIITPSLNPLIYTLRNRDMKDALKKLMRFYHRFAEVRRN
Chain of Olfr1322 (Q7TQW3 1-310): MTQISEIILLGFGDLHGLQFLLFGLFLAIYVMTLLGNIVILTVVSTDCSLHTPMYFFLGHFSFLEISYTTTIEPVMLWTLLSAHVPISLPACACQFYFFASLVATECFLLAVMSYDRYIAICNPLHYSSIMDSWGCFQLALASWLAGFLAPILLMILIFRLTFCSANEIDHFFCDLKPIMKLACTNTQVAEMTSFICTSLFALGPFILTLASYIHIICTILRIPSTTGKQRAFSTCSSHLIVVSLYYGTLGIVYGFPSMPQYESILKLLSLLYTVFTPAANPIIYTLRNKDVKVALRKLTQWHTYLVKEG
Chain of Olfr93 (B9EI77 1-312): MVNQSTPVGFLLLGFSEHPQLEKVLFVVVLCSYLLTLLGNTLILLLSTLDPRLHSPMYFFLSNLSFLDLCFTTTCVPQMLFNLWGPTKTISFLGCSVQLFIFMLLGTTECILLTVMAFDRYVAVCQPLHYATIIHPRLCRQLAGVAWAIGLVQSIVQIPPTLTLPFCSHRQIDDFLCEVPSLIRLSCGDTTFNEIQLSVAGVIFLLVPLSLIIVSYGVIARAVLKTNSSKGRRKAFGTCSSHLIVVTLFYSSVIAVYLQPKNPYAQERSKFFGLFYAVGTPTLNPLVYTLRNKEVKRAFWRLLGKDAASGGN
Chain of Olfr1487 (Q8VFQ6 1-315): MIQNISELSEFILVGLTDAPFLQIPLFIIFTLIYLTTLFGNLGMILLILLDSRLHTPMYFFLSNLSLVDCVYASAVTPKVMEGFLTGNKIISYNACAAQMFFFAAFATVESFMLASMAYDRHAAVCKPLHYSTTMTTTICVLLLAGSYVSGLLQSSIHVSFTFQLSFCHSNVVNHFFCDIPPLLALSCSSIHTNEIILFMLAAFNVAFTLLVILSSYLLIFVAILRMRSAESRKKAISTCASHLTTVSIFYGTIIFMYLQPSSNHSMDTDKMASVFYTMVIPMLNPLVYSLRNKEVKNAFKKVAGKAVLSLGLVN
Chain of Olfr339 (Q8VGK8 1-309): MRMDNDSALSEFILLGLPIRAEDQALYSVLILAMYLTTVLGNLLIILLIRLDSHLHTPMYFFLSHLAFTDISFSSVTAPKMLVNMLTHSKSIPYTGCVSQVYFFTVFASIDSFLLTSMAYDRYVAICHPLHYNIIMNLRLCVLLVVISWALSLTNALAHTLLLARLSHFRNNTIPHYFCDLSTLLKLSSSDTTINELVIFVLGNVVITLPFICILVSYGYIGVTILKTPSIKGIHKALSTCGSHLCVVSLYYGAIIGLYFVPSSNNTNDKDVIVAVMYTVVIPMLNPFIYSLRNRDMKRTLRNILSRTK
Chain of Olfr46 (Q2VPD7 1-310): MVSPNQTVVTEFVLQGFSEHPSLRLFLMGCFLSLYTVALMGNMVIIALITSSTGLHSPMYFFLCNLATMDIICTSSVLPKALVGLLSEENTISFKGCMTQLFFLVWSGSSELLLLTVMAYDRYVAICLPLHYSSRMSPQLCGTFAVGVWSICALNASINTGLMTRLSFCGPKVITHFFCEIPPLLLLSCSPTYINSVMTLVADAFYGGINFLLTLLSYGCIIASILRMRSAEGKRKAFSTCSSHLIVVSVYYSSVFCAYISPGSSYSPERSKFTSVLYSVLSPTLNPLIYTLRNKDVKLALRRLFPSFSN
Chain of Olfr120 (Q7TRJ4 1-321): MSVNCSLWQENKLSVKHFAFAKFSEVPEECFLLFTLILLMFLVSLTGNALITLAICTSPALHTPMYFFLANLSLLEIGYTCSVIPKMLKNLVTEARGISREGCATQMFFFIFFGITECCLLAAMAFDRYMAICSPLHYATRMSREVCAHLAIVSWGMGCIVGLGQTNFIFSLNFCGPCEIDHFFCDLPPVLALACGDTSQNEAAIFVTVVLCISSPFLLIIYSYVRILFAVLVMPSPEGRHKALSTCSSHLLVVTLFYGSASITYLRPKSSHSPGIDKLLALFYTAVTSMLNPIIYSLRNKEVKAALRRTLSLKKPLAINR
Chain of Olfr1364 (Q5SZS9 9-314): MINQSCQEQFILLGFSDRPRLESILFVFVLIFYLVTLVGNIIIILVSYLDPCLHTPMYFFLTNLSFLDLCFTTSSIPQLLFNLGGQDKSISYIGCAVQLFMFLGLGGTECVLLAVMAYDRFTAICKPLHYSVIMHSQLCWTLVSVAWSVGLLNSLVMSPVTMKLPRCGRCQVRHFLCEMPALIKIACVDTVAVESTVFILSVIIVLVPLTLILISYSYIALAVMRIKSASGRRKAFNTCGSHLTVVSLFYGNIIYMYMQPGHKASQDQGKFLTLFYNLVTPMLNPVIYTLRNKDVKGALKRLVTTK
Chain of OR11A1 (Q9GZK7 whole entry): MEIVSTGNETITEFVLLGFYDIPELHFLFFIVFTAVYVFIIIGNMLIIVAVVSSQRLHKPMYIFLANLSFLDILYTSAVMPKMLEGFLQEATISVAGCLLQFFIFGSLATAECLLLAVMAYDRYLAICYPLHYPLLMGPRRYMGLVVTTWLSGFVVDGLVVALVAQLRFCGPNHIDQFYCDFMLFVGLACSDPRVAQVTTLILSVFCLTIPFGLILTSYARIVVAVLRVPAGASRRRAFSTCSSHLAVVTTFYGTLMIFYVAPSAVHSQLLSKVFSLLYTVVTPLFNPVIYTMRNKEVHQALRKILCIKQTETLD
Chain of Olfr398 (Q8VFY0 1-314): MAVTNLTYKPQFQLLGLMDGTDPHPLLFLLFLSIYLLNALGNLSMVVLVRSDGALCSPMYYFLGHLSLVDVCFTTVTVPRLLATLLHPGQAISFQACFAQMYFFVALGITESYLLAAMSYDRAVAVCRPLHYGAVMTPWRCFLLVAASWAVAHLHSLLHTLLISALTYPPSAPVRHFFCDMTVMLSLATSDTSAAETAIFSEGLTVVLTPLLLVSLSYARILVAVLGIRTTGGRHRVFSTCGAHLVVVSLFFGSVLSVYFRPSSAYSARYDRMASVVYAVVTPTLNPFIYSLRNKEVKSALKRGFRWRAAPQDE

The term EC50 denotes the concentration giving half of the maximal effect. Regarding `CC1CCCC2(C)CCCCC12O` [Geonol, (4S,4aS,8aR)-4,8a-Dimethyl-1,2,3,4,5,6,7,-octahydronaphthalen-4a-ol], the EC50 was determined as 1280 nM in assay [1]; 3.58 µM in [2]; 16.8 nM in [3]; 2800 nM in assay [4]; 37.5 µM in [5].
Consider `C=CC(O)CCCCC` (stereo not drawn) [1-Octen-3-ol, 1-octen-3-ol], for which the half-maximal effective concentration (EC50) was determined as 113 µM in assay [6], 26 µM in [7], 690 nM in assay [8] and 11.4 µM in [9].
For `CCCC(C)(S)CCO` (stereo not drawn) [Transpirol, 3-methyl-3-sulphanylhexanol], the EC50 was 3.1 µM in assay [10], 170 µM in assay [11] and 2300 nM in assay [12].

(Values after patent US20250327793A1, “METHODS OF IDENTIFYING COMPOUNDS THAT MODULATE LAUNDRY MALODOR, MOLDY MALODOR, OR SWEAT MALODOR” (Firmenich SA, priority 2017, published 2025).)
